Assay results as given in paper PMC10066365, “Nemacol is a small molecule inhibitor of C. elegans vesicular acetylcholine transporter with anthelmintic potential” (Nature Communications, 2023).
“And” between values parts separate entries of the source, which are not always exact repeats. Equal entries are not always repeated. Where two headings read alike, the source gives them in different places.

Key:
C. elegans unc-17(e245) = conditions: for development average norm L4/As / viability Avg: CB245 unc-17(e245); for nemacol-1 x ivermectin matrix dose-response raw data: unc-17(e245) + 0 uM nemacol, 3 replicate columns
C. elegans DA1316 = experiment: C. elegans 3-day liquid viability assay, DA1316 avr-14; avr-15; […]; format: in vivo, Caenorhabditis elegans; conditions: DA1316, nemacol-1 0
C. elegans = C. elegans 3-day liquid viability assay, Nemacol-1 x Ivermectin matrix, wild type; conditions: for development average norm L4/As / viability Avg / average progress to L4 (development) / average viability (relative to control): N2; for average progress to L4 (development) / average viability (relative to control): Nemacol-1-1 0; for nemacol-1 x ivermectin matrix dose-response raw data: wt (N2) + 0 uM nemacol, 3 replicate columns
Haemonchus contortus = Haemonchus contortus L3 Migration Trap Assay (motility, 24 h exposure); conditions: hc weybridge, 24 h; for raw: raw motility readout
[1] = ivermectin 0.001875 uM (row head 1.875)
[2] = ivermectin 0.00375 uM (row head 3.75)
[3] = ivermectin 0.06 uM (row head 60)
[4] = ivermectin 0.00046875 uM (Fig. 5AC sheet)
[5] = ivermectin 0.0009375 uM (Fig. 5AC sheet)
[6] = ivermectin 0.001875 uM (Fig. 5AC sheet)
[7] = ivermectin 0.00375 uM (Fig. 5AC sheet)
[8] = ivermectin 0.03 uM (Fig. 5AC sheet)
[9] = ivermectin 0.06 uM (Fig. 5AC sheet)
[10] = ivermectin 0.0195312 µM + Nemacol_53 26.4 µM
[11] = ivermectin 0.0195312 µM + Nemacol_53 16.8 (unit not given)
[12] = ivermectin 0.078125 µM + Nemacol_53 26.4 µM
[13] = ivermectin 0.078125 µM + Nemacol_53 16.8 (unit not given)
[14] = ivermectin 5 µM + Nemacol_53 16.8 (unit not given)

CC[C@H](C)[C@H]1O[C@]2(CC[C@@H]1C)C[C@@H]1C[C@@H](C/C=C(\C)[C@@H](O[C@H]3C[C@H](OC)[C@@H](O[C@H]4C[C@H](OC)[C@@H](O)[C@H](C)O4)[C@H](C)O3)[C@@H](C)/C=C/C=C3\CO[C@@H]4[C@H](O)C(C)=C[C@@H](C(=O)O1)[C@]34O)O2 [ivermectin]
development average norm L4/As (C. elegans unc-17(e245); ivermectin 0.00046875 uM): 91.4
viability Avg (C. elegans unc-17(e245); ivermectin 0.00046875 uM): 0.92
development average norm L4/As (C. elegans unc-17(e245); ivermectin 0.0009375 uM): 102.0
viability Avg (C. elegans unc-17(e245); ivermectin 0.0009375 uM): 1.02
development average norm L4/As (C. elegans unc-17(e245); ivermectin 0.001875 uM): 96.6
viability Avg (C. elegans unc-17(e245); ivermectin 0.001875 uM): 0.97
development average norm L4/As (C. elegans unc-17(e245); ivermectin 0.00375 uM): 94.6
viability Avg (C. elegans unc-17(e245); ivermectin 0.00375 uM): 0.95
development average norm L4/As (C. elegans unc-17(e245); ivermectin 0.03 uM): 1.1
viability Avg (C. elegans unc-17(e245); ivermectin 0.03 uM): 0.03
development average norm L4/As (C. elegans unc-17(e245); ivermectin 0.06 uM): 0.0
viability Avg (C. elegans unc-17(e245); ivermectin 0.06 uM): 0.00
nemacol-1 x ivermectin matrix dose-response raw data (C. elegans unc-17(e245); [1]): 100.0 and 98.2 and 92.0
nemacol-1 x ivermectin matrix dose-response raw data (C. elegans unc-17(e245); [2]): 94.6 and 102.2 and 87.1
nemacol-1 x ivermectin matrix dose-response raw data (C. elegans unc-17(e245); [3]): 0.0
total animals normalized to corresponding controls (C. elegans DA1316; ivermectin 0.0009375 uM): 111.56
total animals normalized to corresponding controls (C. elegans DA1316; ivermectin 0.001875 uM): 102.36
total animals normalized to corresponding controls (C. elegans DA1316; ivermectin 0.00375 uM): 113.75
total animals normalized to corresponding controls (C. elegans DA1316; ivermectin 0.03 uM): 108.02
total animals normalized to corresponding controls (C. elegans DA1316; ivermectin 0.06 uM): 93.85
development average norm L4/As (C. elegans; [4]): 99.0
viability Avg (C. elegans; [4]): 0.99
development average norm L4/As (C. elegans; [5]): 105.0
viability Avg (C. elegans; [5]): 1.05
average progress to L4 (development) (C. elegans; ivermectin 0.0009375 uM): 107.265
average viability (relative to control) (C. elegans; ivermectin 0.0009375 uM): 1.077
development average norm L4/As (C. elegans; [6]): 102.7
viability Avg (C. elegans; [6]): 1.03
average progress to L4 (development) (C. elegans; ivermectin 0.001875 uM): 88.2297
average viability (relative to control) (C. elegans; ivermectin 0.001875 uM): 0.8852
development average norm L4/As (C. elegans; [7]): 101.8
viability Avg (C. elegans; [7]): 1.03
average progress to L4 (development) (C. elegans; ivermectin 0.00375 uM): 85.4056
average viability (relative to control) (C. elegans; ivermectin 0.00375 uM): 0.8507
development average norm L4/As (C. elegans; [8]): 33.1
viability Avg (C. elegans; [8]): 0.89
average progress to L4 (development) (C. elegans; ivermectin 0.03 uM): 25.8319
average viability (relative to control) (C. elegans; ivermectin 0.03 uM): 0.6373
development average norm L4/As (C. elegans; [9]): 0.0
viability Avg (C. elegans; [9]): 0.11
average progress to L4 (development) (C. elegans; ivermectin 0.06 uM): 0
average viability (relative to control) (C. elegans; ivermectin 0.06 uM): 0.09164
nemacol-1 x ivermectin matrix dose-response raw data (C. elegans; [1]): 131.9 and 90.0 and 88.0
nemacol-1 x ivermectin matrix dose-response raw data (C. elegans; [2]): 106.4 and 120.0 and 114.0
nemacol-1 x ivermectin matrix dose-response raw data (C. elegans; ivermectin 0.03 uM (row head 30)): 48.9 and 56.7 and 24.0
nemacol-1 x ivermectin matrix dose-response raw data (C. elegans; [3]): 12.8 and 13.3 and 2.0
efficacy (Haemonchus contortus; [10]): 51.6335 and 46.2111 and 62.2283
efficacy (Haemonchus contortus; [11]): 45.9092 and 67.7834 and 50.4898
efficacy (Haemonchus contortus; [12]): 64.6293 and 71.8721 and 59.357
efficacy (Haemonchus contortus; [13]): 51.0321 and 52.0838 and 33.3542
efficacy (Haemonchus contortus; ivermectin 0.078125 µM alone): 36.1803 and 63.8058 and 55.3013
efficacy (Haemonchus contortus; ivermectin 0.3125 µM + Nemacol_53 26.4 µM): 79.9766 and 60.2317 and 86.7864
efficacy (Haemonchus contortus; ivermectin 0.3125 µM + Nemacol_53 16.8 (unit not given)): 66.3699 and 69.3635 and 88.9679
efficacy (Haemonchus contortus; ivermectin 0.3125 µM alone): 59.3102 and 77.8029 and 70.3944
efficacy (Haemonchus contortus; ivermectin 1.25 µM + Nemacol_53 26.4 µM): 80.8981 and 87.2376 and 93.0175
efficacy (Haemonchus contortus; ivermectin 1.25 µM + Nemacol_53 16.8 (unit not given)): 94.1091 and 79.6798 and 82.4964
efficacy (Haemonchus contortus; ivermectin 1.25 µM alone): 87.3643 and 74.9707 and 86.5339
efficacy (Haemonchus contortus; ivermectin 5 µM + Nemacol_53 26.4 µM): 82.4313 and 91.8131 and 94.4761
efficacy (Haemonchus contortus; [14]): 92.0083 and 91.7168 and 89.2099
efficacy (Haemonchus contortus; ivermectin 5 µM alone): 83.6288 and 93.388 and 88.8663
efficacy (Haemonchus contortus; ivermectin 20 µM + Nemacol_53 26.4 µM): 86.7838 and 88.1791 and 95.9929
efficacy (Haemonchus contortus; ivermectin 20 µM + Nemacol_53 16.8 (unit not given)): 95.5746 and 77.0116 and 89.754
efficacy (Haemonchus contortus; ivermectin 20 µM alone): 95.1061 and 89.4651 and 83.7772
raw (Haemonchus contortus; ivermectin 0.0012207 µM + Nemacol_53 26.4 µM): 51596.5 and 71143.5 and 66277.5
raw (Haemonchus contortus; ivermectin 0.0012207 µM + Nemacol_53 16.8 (unit not given)): 67834.5 and 50419 and 52275.5
raw (Haemonchus contortus; ivermectin 0.0012207 µM alone): 49240 and 71073.5 and 61317
raw (Haemonchus contortus; ivermectin 0.00488281 µM + Nemacol_53 26.4 µM): 28751.5 and 44196 and 37912.5
raw (Haemonchus contortus; ivermectin 0.00488281 µM alone): 43303 and 44672.5 and 57159.5
raw (Haemonchus contortus; [10]): 27870 and 30994.5 and 21765
raw (Haemonchus contortus; [11]): 31168.5 and 18564 and 28529
raw (Haemonchus contortus; ivermectin 0.0195312 µM alone): 32641 and 25525.5 and 49250.5
raw (Haemonchus contortus; [12]): 20381.5 and 16208 and 23419.5
raw (Haemonchus contortus; [13]): 28216.5 and 27610.5 and 38403
raw (Haemonchus contortus; ivermectin 0.078125 µM alone): 36774.5 and 20856 and 25756.5
raw (Haemonchus contortus; ivermectin 0.3125 µM alone): 23446.5 and 12790.5 and 17059.5
raw (Haemonchus contortus; ivermectin 1.25 µM alone): 7281 and 14422.5 and 7759.5
raw (Haemonchus contortus; [14]): 4605 and 4773 and 6217.5
